Source: ChEMBL document CHEMBL1201862, “PubChem BioAssay data set” (2004)
The source made the active and inactive calls.

Experiments:
[1] = molecular target: T1, Corticotropin-releasing factor receptor 2/Corticotropin-releasing factor-binding protein (Homo sapiens, UniProt P24387+Q13324); assay: Dose Response confirmation of uHTS hits for small molecule antagonists of the CRF-binding protein and CRF-R2 receptor complex.; format: functional; conditions: read-out: IC50_Mean
T1 sequence (Q13324 whole entry): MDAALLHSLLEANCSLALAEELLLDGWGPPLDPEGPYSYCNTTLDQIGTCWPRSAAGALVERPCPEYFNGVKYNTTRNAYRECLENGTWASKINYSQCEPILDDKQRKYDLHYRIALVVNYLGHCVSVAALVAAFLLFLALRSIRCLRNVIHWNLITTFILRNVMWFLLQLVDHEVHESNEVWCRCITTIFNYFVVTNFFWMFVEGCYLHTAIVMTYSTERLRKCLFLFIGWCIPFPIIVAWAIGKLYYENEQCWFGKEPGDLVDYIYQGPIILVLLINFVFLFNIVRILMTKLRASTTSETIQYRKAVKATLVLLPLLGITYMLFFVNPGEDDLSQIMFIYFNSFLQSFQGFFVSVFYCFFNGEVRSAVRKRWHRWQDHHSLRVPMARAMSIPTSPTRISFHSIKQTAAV
T1 sequence (P24387 whole entry): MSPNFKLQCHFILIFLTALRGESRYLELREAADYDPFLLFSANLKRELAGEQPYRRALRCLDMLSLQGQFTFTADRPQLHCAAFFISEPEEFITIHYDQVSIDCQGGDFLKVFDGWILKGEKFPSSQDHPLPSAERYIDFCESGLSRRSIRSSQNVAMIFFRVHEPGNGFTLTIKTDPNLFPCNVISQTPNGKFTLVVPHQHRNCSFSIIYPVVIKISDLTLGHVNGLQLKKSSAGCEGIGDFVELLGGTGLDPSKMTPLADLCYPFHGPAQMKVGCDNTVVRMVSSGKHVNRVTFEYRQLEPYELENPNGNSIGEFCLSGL

[2] = molecular target: T1, Corticotropin-releasing factor receptor 2/Corticotropin-releasing factor-binding protein; assay: activators of CRF receptor 2 with binding protein – uHTS hits, confirmation (AID 602473); format: functional; conditions: read-out: EC50_Mean
[3] = molecular target: T2, Rac GTPase-activating protein 1 (Homo sapiens, UniProt Q9H0H5); assay: blockers of MgcRacGAP-driven Rac1 GTP hydrolysis – biochemical, ADP Hunter fluorescence, primary and confirmatory, confirmation (AID 624330); format: functional
T2 sequence (Q9H0H5 whole entry): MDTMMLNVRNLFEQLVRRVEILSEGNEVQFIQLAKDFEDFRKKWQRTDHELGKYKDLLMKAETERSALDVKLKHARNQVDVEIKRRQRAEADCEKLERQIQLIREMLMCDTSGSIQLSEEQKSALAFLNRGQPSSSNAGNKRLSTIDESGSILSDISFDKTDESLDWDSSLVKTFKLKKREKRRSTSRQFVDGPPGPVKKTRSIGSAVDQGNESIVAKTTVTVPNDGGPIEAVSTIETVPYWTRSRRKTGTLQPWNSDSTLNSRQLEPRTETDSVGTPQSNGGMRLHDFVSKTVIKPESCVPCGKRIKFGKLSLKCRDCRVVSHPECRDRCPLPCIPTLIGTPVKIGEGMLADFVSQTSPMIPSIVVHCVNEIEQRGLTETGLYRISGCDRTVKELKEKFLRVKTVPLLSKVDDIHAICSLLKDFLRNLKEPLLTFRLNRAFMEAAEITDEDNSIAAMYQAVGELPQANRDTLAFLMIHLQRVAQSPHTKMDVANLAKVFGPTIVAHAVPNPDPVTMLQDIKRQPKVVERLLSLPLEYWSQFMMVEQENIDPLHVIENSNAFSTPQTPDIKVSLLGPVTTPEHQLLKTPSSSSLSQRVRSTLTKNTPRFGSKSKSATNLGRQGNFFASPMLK

[4] = molecular target: T3, DNA repair protein RAD52 homolog (Homo sapiens, UniProt P43351); format: functional, biochemical
T3 sequence (P43351 whole entry): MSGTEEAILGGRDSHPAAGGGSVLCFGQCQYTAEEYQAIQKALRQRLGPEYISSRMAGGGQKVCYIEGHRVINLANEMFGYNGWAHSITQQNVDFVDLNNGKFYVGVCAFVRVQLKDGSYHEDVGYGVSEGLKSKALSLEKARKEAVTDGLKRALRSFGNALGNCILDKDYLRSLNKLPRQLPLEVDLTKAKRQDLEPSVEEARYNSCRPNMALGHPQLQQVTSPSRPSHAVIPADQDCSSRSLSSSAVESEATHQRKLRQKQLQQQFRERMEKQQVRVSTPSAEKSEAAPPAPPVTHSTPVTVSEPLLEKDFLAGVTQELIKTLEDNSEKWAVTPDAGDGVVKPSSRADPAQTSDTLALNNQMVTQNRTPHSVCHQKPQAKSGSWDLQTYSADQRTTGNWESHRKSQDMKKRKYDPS

[5] = test system: Escherichia coli; assay: microbe, parasite or virus in culture
[6] = test system: Escherichia coli; assay: microbe, parasite or virus in culture; remark: listed apart in the source
[7] = molecular target: Glucose-6-phosphate 1-dehydrogenase (Homo sapiens, UniProt P11413); assay: inhibition of Homo sapiens G6PD, dose series – biochemical, fluorescence, selectivity assay for P. falciparum G6PD inhibitor project, dose response (AID 504792); format: functional
[8] = molecular target: T4, Short transient receptor potential channel 4 (Mus musculus, UniProt Q9QUQ5); assay: block of DAMGO-driven TRPC4 calcium entry – cell-based, HEK293 TRPC4/mu-opioid, Fluo-4 calcium, dose response (AID 434942); format: functional;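 further: potency of inhibitors blocking the TRPC4 calcium response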
T4 sequence (Q9QUQ5 whole entry): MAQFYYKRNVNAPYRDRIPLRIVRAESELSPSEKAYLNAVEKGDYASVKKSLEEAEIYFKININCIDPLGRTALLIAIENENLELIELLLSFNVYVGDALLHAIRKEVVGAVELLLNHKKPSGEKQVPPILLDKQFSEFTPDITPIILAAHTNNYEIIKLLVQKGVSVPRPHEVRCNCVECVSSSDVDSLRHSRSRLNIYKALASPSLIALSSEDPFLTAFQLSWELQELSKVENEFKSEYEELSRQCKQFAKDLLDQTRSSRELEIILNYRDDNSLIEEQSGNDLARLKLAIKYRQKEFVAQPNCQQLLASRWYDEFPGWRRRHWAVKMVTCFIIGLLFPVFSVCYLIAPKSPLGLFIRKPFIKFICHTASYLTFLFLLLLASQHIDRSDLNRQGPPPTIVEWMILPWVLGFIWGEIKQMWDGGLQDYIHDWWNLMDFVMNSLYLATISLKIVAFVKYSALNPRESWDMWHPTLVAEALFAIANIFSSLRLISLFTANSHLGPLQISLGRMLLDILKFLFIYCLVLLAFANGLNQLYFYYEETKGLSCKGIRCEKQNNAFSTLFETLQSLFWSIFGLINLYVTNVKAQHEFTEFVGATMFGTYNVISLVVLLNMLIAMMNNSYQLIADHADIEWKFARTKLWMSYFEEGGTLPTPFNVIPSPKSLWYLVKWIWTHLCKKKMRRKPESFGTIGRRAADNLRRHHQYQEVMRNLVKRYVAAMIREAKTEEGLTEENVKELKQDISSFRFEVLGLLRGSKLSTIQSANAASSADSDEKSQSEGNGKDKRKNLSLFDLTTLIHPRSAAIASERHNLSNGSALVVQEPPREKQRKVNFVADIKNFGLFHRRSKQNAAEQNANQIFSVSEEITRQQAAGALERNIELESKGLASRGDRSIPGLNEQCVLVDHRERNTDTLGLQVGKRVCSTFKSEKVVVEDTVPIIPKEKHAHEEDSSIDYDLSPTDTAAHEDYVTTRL

[9] = molecular target: Glyceraldehyde-3-phosphate dehydrogenase (Homo sapiens, UniProt P04406)
[10] = molecular target: T5, Alkaline phosphatase, tissue-nonspecific isozyme (Homo sapiens, UniProt P05186); assay: potency against alkaline phosphatase TNAP – biochemical, luminescent, dose response, SAR follow-up (AID 1056)
T5 sequence (P05186 whole entry): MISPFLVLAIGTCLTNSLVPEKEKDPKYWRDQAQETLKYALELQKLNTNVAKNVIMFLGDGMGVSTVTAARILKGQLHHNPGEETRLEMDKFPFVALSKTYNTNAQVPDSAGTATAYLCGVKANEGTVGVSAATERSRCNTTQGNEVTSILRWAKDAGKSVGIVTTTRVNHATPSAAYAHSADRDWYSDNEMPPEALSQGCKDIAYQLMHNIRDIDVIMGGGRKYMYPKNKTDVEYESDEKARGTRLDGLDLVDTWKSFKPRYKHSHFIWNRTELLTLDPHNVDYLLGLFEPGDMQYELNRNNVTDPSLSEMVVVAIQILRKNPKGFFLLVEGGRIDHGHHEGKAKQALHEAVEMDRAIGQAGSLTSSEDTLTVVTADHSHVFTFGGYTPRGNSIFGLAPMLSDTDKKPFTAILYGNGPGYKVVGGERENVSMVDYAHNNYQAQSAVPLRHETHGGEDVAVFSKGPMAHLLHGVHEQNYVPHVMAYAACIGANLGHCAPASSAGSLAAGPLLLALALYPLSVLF

[11] = luciferase reporter signal suppression in cells – H4 neuroglioma cells, luminescence, dose response (AID 1990); format: functional, cell-based
[12] = test system: BJ; assay: BJ-TERT fibroblast viability loss – cell-based, RAS-independent, luminescence, dose response (AID 1933); format: functional; conditions: Homo sapiens
[13] = Luminescence Cell-Based Dose Response HTS to Identify Inhibitors of 5'UTR Stem-Loop Driven Prion Protein mRNA Translation in H4 Neuroglioblastoma Cells. [Related pubchem assays: 1827 (Project Summary), 1813 (Primary HTS)]; format: functional
[14] = test system: BJ; assay: cells; format: functional, cell-based; conditions: Homo sapiens
[15] = test system: BJ; assay: BJ-TERT-LT-ST fibroblast viability loss – cell-based, RAS-independent, luminescence, dose response (AID 1935); format: functional; conditions: Homo sapiens;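 further: BJ fibroblasts immortalized with TERT plus LT and ST oncogenes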
[16] = DRD fibroblast viability loss – cell-based, non-viral oncogenic, luminescence, dose response (AID 1934); format: functional; conditions: Homo sapiens
[17] = HEK-293T viability loss after treatment – luminescence, T-cell screen hits, cytotoxicity control for TCR NF-kB inhibitor project, dose response (AID 489026); format: functional, cell-based;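 further: cells exposed to compound about 14 hours before the viability readout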
[18] = test system: HEK293; assay: inhibition of NOD1-driven NF-kB reporter – cell-based, luminescence, uHTS, primary screen (AID 1578); format: functional; conditions: Homo sapiens
[19] = test system: HEK293; assay: cells; format: functional, cell-based; conditions: Homo sapiens
[20] = test system: HEK293; assay: cells; format: functional, cell-based; conditions: Homo sapiens; remark: listed apart in the source
[21] = test system: HEK293; assay: NOD2 signaling inhibitors in MDP-stimulated cells, cell-based, uHTS, luminescence (AID 2001); format: functional; conditions: Homo sapiens
[22] = HIV-1 AD8 envelope cell-cell fusion blockers – cherry-pick, dose response (AID 652062); format: functional, cell-based;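 further: luciferase signal from cell-cell fusion driven by HIV-1 clade B AD8 Env; potency is for inhibitors of fusion seen as a drop in luminescence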

Chain of Glucose-6-phosphate 1-dehydrogenase (P11413 whole entry): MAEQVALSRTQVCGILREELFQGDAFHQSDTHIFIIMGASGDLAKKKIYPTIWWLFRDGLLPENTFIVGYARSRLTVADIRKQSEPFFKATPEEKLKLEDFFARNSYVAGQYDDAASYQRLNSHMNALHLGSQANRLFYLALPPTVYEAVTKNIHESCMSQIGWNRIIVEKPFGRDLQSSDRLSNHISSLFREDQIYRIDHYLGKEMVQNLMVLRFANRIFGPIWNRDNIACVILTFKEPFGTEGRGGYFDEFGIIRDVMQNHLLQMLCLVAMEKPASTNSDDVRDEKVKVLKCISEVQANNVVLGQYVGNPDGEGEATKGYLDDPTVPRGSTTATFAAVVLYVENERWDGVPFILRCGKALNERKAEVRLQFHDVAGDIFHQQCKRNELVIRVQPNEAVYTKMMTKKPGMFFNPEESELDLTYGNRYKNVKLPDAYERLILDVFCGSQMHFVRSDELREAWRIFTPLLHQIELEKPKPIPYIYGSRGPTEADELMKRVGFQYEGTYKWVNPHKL
Chain of Glyceraldehyde-3-phosphate dehydrogenase (P04406 whole entry): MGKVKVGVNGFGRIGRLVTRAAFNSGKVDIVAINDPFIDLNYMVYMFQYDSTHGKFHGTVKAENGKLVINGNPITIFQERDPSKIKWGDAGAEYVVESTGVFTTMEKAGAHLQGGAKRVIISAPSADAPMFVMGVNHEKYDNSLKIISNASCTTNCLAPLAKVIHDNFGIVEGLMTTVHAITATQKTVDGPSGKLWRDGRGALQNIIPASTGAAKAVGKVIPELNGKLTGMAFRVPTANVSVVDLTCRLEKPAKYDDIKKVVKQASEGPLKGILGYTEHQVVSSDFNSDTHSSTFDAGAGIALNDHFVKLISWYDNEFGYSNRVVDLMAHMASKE

What does the source list for `NCC[C@H](O)C(=O)N[C@@H]1C[C@H](N)[C@@H](O[C@H]2O[C@H](CN)[C@@H](O)[C@H](O)[C@H]2O)[C@H](O)[C@H]1O[C@H]1O[C@H](CO)[C@@H](O)[C@H](N)[C@H]1O`?
IC50 [1]: > 47.1 µM (inactive); EC50 [2]: > 53 µM (inactive); IC50 [3]: 113 µM (active); AC50 [4]: 5.91 µM (active); AC50 [5]: 14.9 µM (active); AC50 [6]: 4.69 µM (active)

With `c1ccc(OCc2nnc3n2N=C(c2ccccc2)CS3)cc1` as the molecule, how does the IC50 [7] read?
Its IC50 is > 80 µM (inactive).

Which EC50 [8] does the source give for `Cc1ccccc1Cn1c(=N)n(CC(O)c2ccco2)c2ccccc21` (centres undefined) here?
The EC50 was 0.668 µM (active).

With `O=C(CSc1nc2ccccc2c(=O)n1CCCO)N1CCc2ccccc21` as the molecule, how does the EC50 [8] read?
The EC50 was 0.596 µM (active).

Which AC50 [6] does the source give for `C=CCOc1cccc(C(=O)N2CCCC(CCC(=O)NCc3ccccc3F)C2)c1` (centres undefined) here?
Its AC50 is 41.3 µM (active).

Which results are given for `c1cc2c(cc1NC1CCCCCC1)OCO2`?
IC50 [7]: > 80 µM (inactive); IC50 [3]: 48.4 µM (active)

Which results are given for `O=C1C2CC=CCC2C(=O)N1c1nc[nH]n1` (centres undefined)?
IC50 [9]: > 100 µM (not active); IC50 [10]: > 100 µM (inactive)

Which IC50 [7] does the source give for `C/C(Cn1nnc([N+](=O)[O-])n1)=N\NC(=O)c1ccc(O)cc1O` here?
Its IC50 is > 80 µM (inactive).

And the AC50 [5]?
The AC50 was 84.9 µM (active).

With `CCCCc1nc2ccccc2c(N)c1CCC.O=C(O)c1cc([N+](=O)[O-])ccc1Cl` as the molecule, how does the EC50 [8] read?
The EC50 was 1.19 µM (active).

For `COc1ccc(C2=NOC(C(=O)NCc3ccc(F)cc3)C2)cc1OC` (centres undefined), which EC50 [11] is on record?
Its EC50 is 11.2 µM (active).

And the EC50 [12]?
Its EC50 is 1.54 µM (inconclusive).

What about the EC50 [13] of the same molecule?
The EC50 was > 120 µM (not active).

What about the EC50 [14] of the same molecule?
Its EC50 is 26 µM (active).

And the EC50 [15]?
The EC50 was 5.72 µM (inconclusive).

What about the EC50 [16] of the same molecule?
Its EC50 is 18.3 µM (active).

And the IC50 [17]?
The IC50 was > 80 µM (inactive).

Which IC50 [17] does the source give for `Cc1ccc2[nH]c(-c3cccc(F)c3)cc(=O)c2c1` here?
Its IC50 is > 80 µM (inactive).

With `CCOc1ccccc1NS(=O)(=O)c1c(C)noc1C` as the molecule, how does the IC50 [7] read?
Its IC50 is > 80 µM (inactive).

Which AC50 [5] does the source give for `Cn1c(C(=O)OCC(=O)NCC2CCCO2)cc2sccc21` (centres undefined) here?
Its AC50 is 25.8 µM (active).

And the AC50 [6]?
The AC50 was 149 µM (active).

For `O=C(Nc1nc(-c2ccc3c(c2)OCO3)cs1)c1ccncc1`, which EC50 [18] is on record?
Its EC50 is 3.32 µM (active).

What about the IC50 [19] of the same molecule?
The IC50 was 4.5 µM (active).

And the IC50 [20]?
The IC50 was 11 µM (active).

And the IC50 [21]?
Its IC50 is 4.79 µM (active).

And the AC50 [22]?
The AC50 was 4.67 µM (active).

For `Clc1ccc(-c2csc(-c3cccnc3)n2)s1`, which AC50 [6] is on record?
Its AC50 is 276 µM (active).
